Laboratory results taken from paper PMC4865847, “Putative histidine kinase inhibitors with antibacterial effect against multi-drug resistant clinical isolates identified by in vitro and in silico screens” (Scientific Reports, 2016).
pIC50: −log10 of the molar value. ≈ marks a conversion by molar mass, not a printed value. Where “and” joins values, the source holds several entries; their conditions need not be identical. Identical values can stand only once. Like-named read-outs stand apart in the source and are kept apart here.

Tests used:
S. aureus PhoR (PhoR^S) = S. aureus PhoR (PhoR^S) (Staphylococcus aureus, UniProt Q2FXN7); test: Aggregation analysis by native-PAGE, PhoR^S; conditions: 2 mM (S5 and S6 5 mM), 10% DMSO
Protocol: E. coli PhoR and EnvZ, and S. aureus PhoR ([…], final concentration) were prepared in kinase buffer. […] DMSO in the assays was maintained to a final concentration 10% (v/v). After 30 min of incubation at room temperature Native polyacrylamide gel electrophoresis (Native-PAGE) loading buffer was added and samples loaded. Coomassie blue staining was used for protein visualization.

Staphylococcus aureus = test: Antibacterial susceptibility testing (MIC/MBC), S. aureus; format: cell-based; conditions: for MIC / MBC: Staphylococcus aureus; for MBC: read-out: MBC S. aureus DSM 20231
Protocol: (§1) Minimal inhibitory concentrations (MICs) were determined following a standard double-dilution method. […] For S. pneumoniae MICs were determined by adapting the standard double-dilution method to anaerobic conditions and of this microorganism (use of Todd Hewitt Yeast extract with 200 U/mL of catalase and continuous monitoring of growth).

E. coli PhoR (PhoR^E) = target: T1, E. coli PhoR (PhoR^E) (Escherichia coli, UniProt P08400); test: In vitro autophosphorylation kinase assay with γ-32P-ATP, PhoR^E; format: biochemical; conditions: for pIC50: autophosphorylation, one time point (30 sec), 10% DMSO, read-out: IC50 PhoR^E
T1 construct: The catalytic portion (DHp and CA domain) of E. coli PhoR (PhoR^E); made in house; host or cells: E. coli RIL
Procedure, shortened: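 Autophosphorylation, initiated with γ-32P-ATP (0.1 μCi/μl; 0.03–0.06 μM ATP final), quenched with SDS/EDTA sample buffer, resolved by SDS-PAGE and quantified by phosphor-imaging. ≈4 μM kinase, fragments up to 20 mM, pH 8.5 Tris buffer with Mg2+; DMSO-matched ligand-free controls.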

[1] = test system: Staphylococcus epidermidis; test: Antibacterial susceptibility testing (MIC/MBC), S. epidermidis; format: cell-based; conditions: for MBC / MIC: Staphylococcus epidermidis
Protocol: as §1

Escherichia coli = test: Antibacterial susceptibility testing (MIC/MBC), E. coli; format: cell-based; conditions: Escherichia coli
Protocol: as §1

Klebsiella pneumoniae = test: Antibacterial susceptibility testing (MIC), K. pneumoniae; format: cell-based; conditions: for MIC: Klebsiella pneumoniae, ATCC700603, strain ATCC 700603
Procedure, shortened: (§2)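 MICs were determined by standard double (two-fold) dilution and read as the lowest compound concentration with no visible growth. MBC was the lowest concentration giving no colonies on plating, or no growth on regrowth in fresh MH medium. For S. pneumoniae the method was adapted to anaerobic conditions in Todd Hewitt yeast extract with 200 U/mL catalase, with growth monitored continuously.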

Streptococcus pneumoniae = test: Antibacterial susceptibility testing (MIC), S. pneumoniae; format: cell-based; conditions: strain 49619
Protocol: Bacterial strains used in this study for antibacterial susceptibility testing (Table S5) were propagated using standard microbiological procedures. Minimal inhibitory concentrations (MICs) were determined following a standard double-dilution method. MICs were recorded as the lowest concentration of the compound where no visible growth was observed. After plating the dilutions around the MIC or growing them in fresh MH media, minimal bactericidal concentration (MBC) was recorded as the lowest concentration of the compound at which no colonies were formed or no growth was observed, respectively. For S. pneumoniae MICs were determined by adapting the standard double-dilution method to anaerobic conditions and of this microorganism (use of Todd Hewitt Yeast extract with 200 U/mL of catalase and continuous monitoring of growth).

[2] = test system: Stenotrophomonas maltophilia; test: Antibacterial susceptibility testing (MIC), S. maltophilia; format: cell-based
Procedure, shortened: as §2

Pseudomonas aeruginosa = test: Antibacterial susceptibility testing (MIC), P. aeruginosa; format: cell-based; conditions: strain ATCC 27853; for MIC: Pseudomonas aeruginosa, ATCC27853
Procedure, shortened: as §2

Streptococcus suis = test: Antibacterial susceptibility testing (MIC), S. suis; format: cell-based; conditions: Streptococcus suis, read-out: MIC Streptococcus suis 3881/S10, strain 3881/S10
Procedure, shortened: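 Susceptibility is given as MIC by the standard double-dilution method, defined as no visible growth. For S. pneumoniae, conditions were anaerobic with Todd Hewitt yeast extract plus 200 U/mL catalase.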

[3] = Solubility in kinase buffer; format: physicochemical; conditions: kinase buffer in the presence of 10% DMSO
Hemolysis assay = format: cell-based; conditions: human
Protocol: Hemolytic activity against human erythrocytes taken from a healthy donor was measured as previously described. The hemolysis experiments were carried out in accordance with the guidelines of the United Arab Emirates University (UAEU) Research Ethics Review Board. All experimental protocols were approved by the Research Ethics Review Board of UAEU and informed consent was obtained from all donors.

[4] = ATCC reference strain 25293, read-out: MIC S. aureus 25293
[5] = DSM20231, strain DSM 20231, read-out: MIC S. aureus DSM 20231
[6] = MRSA clinical isolate 145/08, read-out: MIC S. aureus 145/08
[7] = MRSA clinical isolate 274/08, read-out: MIC S. aureus 274/08
[8] = MRSA, MRSA clinical isolate T4/6, read-out: MIC S. aureus T4/6
[9] = MRSA, MRSA clinical isolate V4180, read-out: MIC S. aureus V4180
[10] = DSM20044, strain DSM 20044, read-out: MIC S. epidermidis DSM 20044
[11] = clinical isolate T7/3, read-out: MIC S. epidermidis T7/3
[12] = clinical isolate T37/8, read-out: MIC S. epidermidis T37/8
[13] = clinical isolate T6119, read-out: MIC S. epidermidis T6119
[14] = strain RP62A (biofilm producer), read-out: MIC S. epidermidis RP62A
[15] = strain RP62A/1 (non-biofilm producer), read-out: MIC S. epidermidis RP62A/1
[16] = summary over clinical isolates, read-out: MICs for S. epidermidis clinical isolates
[17] = ATCC25276, strain ATCC 25276, read-out: MIC E. coli ATCC 25276
[18] = strain CFT 073, read-out: MIC E. coli CFT 073
[19] = clinical isolate B32/1, read-out: MIC S. maltophilia B32/1

T1 sequence (P08400 210-425): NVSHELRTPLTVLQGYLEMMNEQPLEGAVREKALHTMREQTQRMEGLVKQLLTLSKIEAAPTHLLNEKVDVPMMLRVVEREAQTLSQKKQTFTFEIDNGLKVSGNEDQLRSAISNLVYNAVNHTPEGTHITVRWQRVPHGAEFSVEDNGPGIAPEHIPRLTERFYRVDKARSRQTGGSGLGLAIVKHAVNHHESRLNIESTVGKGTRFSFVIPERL
Sequence of S. aureus PhoR (PhoR^S) (Q2FXN7 entry or part of it): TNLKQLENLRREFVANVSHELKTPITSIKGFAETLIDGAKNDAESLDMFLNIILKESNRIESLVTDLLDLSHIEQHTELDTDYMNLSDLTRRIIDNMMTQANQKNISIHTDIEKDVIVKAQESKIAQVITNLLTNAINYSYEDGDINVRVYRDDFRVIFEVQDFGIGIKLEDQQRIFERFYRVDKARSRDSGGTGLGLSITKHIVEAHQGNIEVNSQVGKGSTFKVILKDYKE

Compound | HK aggregation, PhoR^S (S. aureus PhoR (PhoR^S)) | MIC (Staphylococcus aureus; [4]) [µg/mL] | MBC (Staphylococcus aureus; DSM20231, strain DSM 20231) [µg/mL] | MIC (Staphylococcus aureus; [5]) [µg/mL] | MIC (Staphylococcus aureus; [6]) [µg/mL] | MIC (Staphylococcus aureus; [7]) [µg/mL] | MIC (Staphylococcus aureus; [8]) [µg/mL] | MIC (Staphylococcus aureus; [9]) [µg/mL] | pIC50 (E. coli PhoR (PhoR^E)) | MBC ([1]; DSM20044, strain DSM 20044) [µg/mL] | MIC [1, 10] [µg/mL] | MIC [1, 11] [µg/mL] | MIC [1, 12] [µg/mL] | MIC [1, 13] [µg/mL] | MIC [1, 14] [µg/mL] | MIC [1, 15] [µg/mL] | MIC [1, 16] [µg/mL] | MIC (Escherichia coli; [17]) [µg/mL] | MIC (Escherichia coli; [18]) [µg/mL] | MIC (Klebsiella pneumoniae) [µg/mL] | also measured
CC[C@H](c1ccc(O)cc1)[C@@H](CC)c1ccc(F)cc1 [S1.13, 4-[(3S,4R)-4-(4-fluorophenyl)hexan-3-yl]phenol] | do not cause HK aggregation | 8 (≈ 29.4 µM) | 33 (≈ 121 µM) | 8 (≈ 29.4 µM) | 8 (≈ 29.4 µM) | 16 (≈ 58.7 µM) | 8 (≈ 29.4 µM) | 8 (≈ 29.4 µM) | 4.80 | 8 (≈ 29.4 µM) | 1 (≈ 3.67 µM) | 8 (≈ 29.4 µM) | 16 (≈ 58.7 µM) | 8 (≈ 29.4 µM) | 8 (≈ 29.4 µM) | 8 (≈ 29.4 µM) | 8 to 16 (≈ 29.4 to 58.7 µM) | > 500 | > 500 | > 500 | MIC (Staphylococcus aureus; MRSA clinical isolate 127/08, read-out: MIC S. aureus 127/08): 16 µg/mL (≈ 58.7 µM); MIC (Staphylococcus aureus; MRSA, MRSA clinical isolate S908, read-out: MIC S. aureus S908): 16 µg/mL (≈ 58.7 µM); MIC (Staphylococcus aureus; MRSA, summary over strains, read-out: MICs for the S. aureus reference strains and the MRSA strains): 8 to 16 µg/mL (≈ 29.4 to 58.7 µM); MIC (Staphylococcus aureus; MRSA, summary over susceptible MRSA clinical isolates, read-out: MICs for MRSA strains): 8 to 16 µg/mL (≈ 29.4 to 58.7 µM); MBC S. aureus DSM 20231 (Staphylococcus aureus; strain DSM 20231): 31 µg/mL (≈ 114 µM); MIC S. aureus DSM 20231 (Staphylococcus aureus; strain DSM 20231): 8^¥ μg/ml; bacteriostatic or bactericidal for S. aureus DSM 20231 (Staphylococcus aureus; strain DSM 20231): bactericidal; inhibition at 2000 µM (E. coli PhoR (PhoR^E); 2 mM, 30 sec, compared to negative control): > 75%; MIC S. epidermidis DSM 20044 ([1]; strain DSM 20044): 1^¥ μg/ml; bacteriostatic or bactericidal for S. epidermidis DSM 20044 ([1]; strain DSM 20044): bactericidal; MIC K. pneumoniae ATCC700603 (Klebsiella pneumoniae; strain ATCC 700603): >500 µg/mL; MIC (Streptococcus pneumoniae): 16 µg/mL (≈ 58.7 µM); MIC ([2]; clinical isolate B5/5, read-out: MIC S. maltophilia B5/5): > 500 µg/mL; MIC ([2]; clinical isolate B6/2, read-out: MIC S. maltophilia B6/2): > 500 µg/mL; MIC [2, 19]: > 500 µg/mL; MIC (Pseudomonas aeruginosa): > 500 µg/mL; MIC P. aeruginosa ATCC 27853 (Pseudomonas aeruginosa): >500 µg/mL; MIC (Streptococcus suis): 8 µg/mL (≈ 29.4 µM); solubility in kinase buffer [3]: good solubility; HC50 (Hemolysis assay): 277 µg/mL
Nc1nc(-c2ccc(Br)cc2)cs1 [F1, 4-(4-bromophenyl)-1,3-thiazol-2-amine] | do not cause HK aggregation | 125 (≈ 490 µM) | > 500 | 25 (≈ 98 µM) | 125 (≈ 490 µM) | 125 (≈ 490 µM) | 125 (≈ 490 µM) | 125 (≈ 490 µM) | ~2.70 and 2.70 | 250 (≈ 980 µM) | 4 (≈ 15.7 µM) | 63 (≈ 247 µM) | > 500 | > 500 | > 500 | 250 (≈ 980 µM) | 63 (≈ 247 µM) | > 500 | > 500 | > 500 | MIC (Staphylococcus aureus; MRSA, summary over strains, read-out: MICs for the MRSA strains and S. aureus 25293): 125 to 500 µg/mL (≈ 490 to 1960 µM); MIC [2, 19]: > 500 µg/mL; MIC (Pseudomonas aeruginosa): > 500 µg/mL; MIC (Streptococcus suis): > 500 µg/mL; solubility in kinase buffer [3]: limited solubility; HC50 (Hemolysis assay): > 500 µg/mL
